According to patent US12077508B2, “Inhibitors of the Notch transcriptional activation complex kinase (“NACK”) and methods for use of the same” (UNIVERSITY OF MIAMI, priority 2018, dated 2024):

What was measured:
Notch target genes = assay: RT-qPCR of Notch target genes in Notch/NACK-dependent cells; type: cell-based, human; conditions: OE33; FIG. 6B
Experimental: To assess the effect of NACK inhibitor on Notch target gene transcription, Notch/NACK-dependent cell lines were treated with NACK inhibitors. The cells were also treated with DAPT as a positive control. DMSO treated cells served as a vehicle control for comparison. Gene expression was normalized to HPRT, and TBP served as a negative control to validate normalization.
Reverse transcription and qPCR analysis were performed as described previously (See Weaver et al., Cancer Research 74, 4741-4751 (2014)). Gene expression was normalized to the TATA-binding protein (“TBP”) gene. As a control, hypoxanthine phosphoribosyltransferase 1 (“HPRT”) gene expression was also monitored.

[1] = test system: esophageal adenocarcinoma (EAC) PDX
Experimental: Two EAC PDX models were constructed (EAC47 and EAC36) from patient tumor samples. Mice harboring established tumors (approx. 200 mm^3) were treated with either DAPT (20 mg/kg) or Z271-0326 (25 mg/kg) daily via intraperitoneal injections.
When the tumor size reaches 200 mm^3, the corresponding groups were either treated with vehicle (DMSO) or lead compound by IP injection daily.

[2] = target: T1, NACK binding to the Notch transcription complex (Mus musculus, UniProt Q571I4); assay: CSL-DNA affinity precipitation (CSL-DAP) assay; type: cell-based
T1 construct: expressed in transfected cells; host or cells: 293T
T1 sequence (Q571I4 1-1373): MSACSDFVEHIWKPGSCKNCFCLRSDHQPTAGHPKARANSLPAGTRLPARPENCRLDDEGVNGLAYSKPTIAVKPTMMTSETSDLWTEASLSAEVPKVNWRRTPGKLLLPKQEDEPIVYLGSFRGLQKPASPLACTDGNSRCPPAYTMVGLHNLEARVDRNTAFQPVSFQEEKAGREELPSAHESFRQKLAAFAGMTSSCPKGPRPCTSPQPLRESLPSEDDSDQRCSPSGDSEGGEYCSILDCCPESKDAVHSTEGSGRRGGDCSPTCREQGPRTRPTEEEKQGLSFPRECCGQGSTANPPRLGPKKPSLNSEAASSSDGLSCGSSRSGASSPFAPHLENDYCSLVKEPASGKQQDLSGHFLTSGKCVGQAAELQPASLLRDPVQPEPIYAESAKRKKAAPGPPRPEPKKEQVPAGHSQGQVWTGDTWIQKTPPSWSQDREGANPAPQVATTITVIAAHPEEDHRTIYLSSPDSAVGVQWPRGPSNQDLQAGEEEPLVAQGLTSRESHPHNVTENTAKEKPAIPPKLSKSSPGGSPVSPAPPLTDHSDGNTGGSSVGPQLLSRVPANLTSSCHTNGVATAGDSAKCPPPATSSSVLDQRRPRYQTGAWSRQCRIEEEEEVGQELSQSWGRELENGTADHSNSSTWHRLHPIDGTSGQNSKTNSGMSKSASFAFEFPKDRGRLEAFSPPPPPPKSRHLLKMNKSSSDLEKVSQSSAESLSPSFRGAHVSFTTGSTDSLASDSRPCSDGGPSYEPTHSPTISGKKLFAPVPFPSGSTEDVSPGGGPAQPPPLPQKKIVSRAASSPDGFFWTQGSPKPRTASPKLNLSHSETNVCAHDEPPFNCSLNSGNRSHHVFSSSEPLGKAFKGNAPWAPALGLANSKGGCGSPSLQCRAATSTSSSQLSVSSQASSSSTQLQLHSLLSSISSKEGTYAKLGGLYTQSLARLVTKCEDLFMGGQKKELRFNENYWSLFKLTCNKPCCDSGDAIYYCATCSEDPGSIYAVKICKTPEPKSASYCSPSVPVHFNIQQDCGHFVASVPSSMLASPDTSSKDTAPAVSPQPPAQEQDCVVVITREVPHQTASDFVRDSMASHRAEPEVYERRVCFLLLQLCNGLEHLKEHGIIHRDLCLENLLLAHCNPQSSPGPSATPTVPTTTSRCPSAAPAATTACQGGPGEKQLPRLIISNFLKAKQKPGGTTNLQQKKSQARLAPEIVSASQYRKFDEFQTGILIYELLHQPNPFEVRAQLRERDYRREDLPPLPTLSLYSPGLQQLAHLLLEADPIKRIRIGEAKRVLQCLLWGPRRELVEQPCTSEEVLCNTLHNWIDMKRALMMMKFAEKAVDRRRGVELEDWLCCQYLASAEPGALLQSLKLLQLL
Experimental: To determine the specificity of hit-to-lead compounds targeting NACK activity, it was evaluated whether iNACK can block NACK binding to the Notch complex by conducting CSL-DNA affinity precipitation (CSL-DAP) assay. […] In the CSL-DAP assay, 293T cells were co-transfected with N1^ICD, Maml1 and NACK. Transfections were performed using LipoJet transfection reagent (SL100468, SignaGen Laboratories) according to the manufacturer recommended protocol. After two days of transfection, cells were treated with compounds for 2 hours prior collecting the cell lysate. Cell lysates were incubated with DNA streptavidin beads. Proteins that bound to the beads were analyzed by Western blot.
Western blot was performed as described previously (See Weaver et al., Cancer Research 74, 4741-4751 (2014)). Primary antibodies were α-NACK (1:1,000; against aa209-287 of NACK and affinity purified), α-CSL (1:1,000; generated against full-length CSL and affinity purified), α-Maml1 (1:5,000; Cell Signaling Technology), α-cleaved-Notch1 (1:1,000; Cell Signaling Technology).

HC11/N1ICD spheres = assay: Tumor sphere formation assay in HC11/N1ICD; type: cell-based, mouse
Description: To further explore the effect of NACK inhibitors targeting Notch pathway, ectopic expression of Notch in HC11 mammary epithelial cells was constructed, as HC11 cells have little to no endogenous Notch activity. Moreover, HC11 cells are insensitive to either DAPT or Z271-0326 treatment as shown in previous colony formation assay (FIG. 5B). See Weaver et al., Cancer Research 74, 4741-4751 (2014). […] Therefore, transformation of HC11 cells by Notch now renders these cells dependent on Notch activity and sensitive to inhibition of NACK by Z271-0326.
(§1) In order to assess the effect of hit to lead compounds on the proliferation of stem cell like population of Notch/NACK dependent cells, the primary tumor spheres were treated with NACK inhibitor and allow the cells to be propagated as secondary cultures. To obtain tumor spheres, cells were cultured in DMEM/F12 with 2% B-27 serum-free supplement (17604-044; Invitrogen), 20 ng/mL epidermal growth factor (EGF; PHG0311L; Invitrogen), and 20 ng/mL basic fibroblastic growth factor (bFGF; PHG0266; Invitrogen) for 14 days. Resulting tumor spheres were examined and counted under the microscope. Furthermore, the tumor spheres were collected for further RT-qPCR analysis to test the effect of hit to lead compounds on the stem like target genes.

OE33 spheres = assay: Tumor sphere formation assay in OE33; type: cell-based, human
Experimental: as §1

## CCN(CC)C(=O)c1cnn2ccc(C3CCN(S(=O)(=O)c4ccc(NC(C)=O)cc4)CC3)cc12 [Compound Z271-0326, 5-(1-((4-acetamidophenyl)sulfonyl)piperidin-4-yl)-N,N-diethylpyrazolo[1,5-a]pyridine-3-carboxamide]
Notch target genes
  mRNA levels of Notch target genes Hes1 and Notch3: decrease the mRNA levels of Notch target genes Hes1 and Notch3
[1]; Z271-0326 25 mg/kg daily i.p., vs control group, FIG. 11E
  proliferation index (Ki67 staining): decrease in proliferation index
[1]; Z271-0326 25 mg/kg daily intraperitoneal, vs vehicle, FIGS. 11A-11C
  tumor growth: significantly attenuated
[2]; 293T cells transfected with N1ICD, Maml1, NACK, 2 hours treatment, FIG. 6A
  inhibition of NACK binding to the Notch transcription complex: dramatically inhibit NACK binding to the NOTCH transcription complex
[2]; WT NACK, FIG. 10D
  recruitment of NACK to the Notch ternary complex: block recruitment of NACK to the Notch ternary complex
HC11/N1ICD spheres; HC11/N1ICD spheres, FIG. 7D
  HES1 and stem-cell marker gene expression (ALDH1A1, SNAIL1, TWIST1): causes a decrease in HES1 gene expression as well as several other stem-cell marker genes
HC11/N1ICD spheres; HC11/N1ICD, FIG. 7C
  secondary sphere formation: inhibits the ability of HC11/N1ICD spheres to form secondary spheres
OE33 spheres; OE33, FIG. 7A
  secondary sphere formation: decrease in the ability of cell spheres to form secondary spheres
OE33 spheres; OE33 spheres, FIG. 7B
  Notch target genes transcription in spheres: affected Notch target genes HES1, MYC, CCND1 and NACK transcription
